From patent US20200385396A1, “Compond for treatment or prevention of obesity or diseases related to obesity, and application thereof” (SHANGHAI INSTITUTES FOR BIOLOGICAL SCIENCES, CHINESE …, priority 2017, published 2020)

Columns and labels:
Format in all cases: in vivo, mouse
[1] = system: mice; assay: Water consumption of mice; details: 20 mg/kg injection, three consecutive days
Method: Since OB/OB mice are a diabetic mouse model, they have the characteristics of polyphagia, polydipsia, and polyuria. […] Again whether HLY72 had the effect of reducing drinking water in mice was tested. […] For the mice of high-fat diet (HFD), the three-day water consumption is only 26.38%±2.06% of the control group (FIG. 9). Therefore, HLY72, like NUCB2/Nesfatin-1, has the effect of reducing water consumption in mice.

[2] = system: mice fed with high-fat diet; assay: Paired feeding experiment in metabolic cage; details: 20 mg/kg
Method: Mice fed with high-fat diet (8 mice per group) are placed in a metabolic cage for 3 days and injected with 20 mg/kg of HLY72 or DMSO once a day. Half of the mice in the DMSO group are paired with the HLY72 group. The average daily food intake (A), energy dissipation (B), respiratory exchange rate (C), physical activity (D) (E) of the three groups of mice after the three-day metabolic cage experiment is completed, the weight of the three groups of mice.
(§1) Before starting the metabolic cage experiment, the mice were fed in a single cage for 1 week. After a one-week single cage adaptation period, three days before the start of the small molecule compound injection, the mice were injected with 25 μL of DMSO within 2 hours before turning off the lights every afternoon, allowing them to adapt to the injection for 3 days. After 3 days of injection, the acclimated mice were put into the metabolic cage. Starting from the same day, 25 μL of DMSO and HLY72 (20 mg/kg) were injected within 2 hours before turning off the lights for 3 consecutive days.
Next, the HLY72 injection group and their paired feeding group are compared. The DMSO-injected mice were divided into two groups. The first group was free to get enough food, while the other group was provided the same amount of food as the HLY72 group daily. […] Compared with the DMSO group, the energy expenditure of the HLY72 group and its paired feeding group are decreased day and night. There is no difference in energy expenditure between the HLY72 group and its paired feeding group during the day and night (FIG. 14b).

[3] = system: normal-fed mice (Lean); assay: Metabolic cage, normal-fed mice (Lean); details: for respiratory exchange rate / physical activity: 20 mg/kg
Method: as §1
Next, the effect of HLY72 on the metabolism of mice is studied. We use two methods: (1) the relevant metabolic indexes of the mice are directly measured using the metabolic cage, and (2) the expression of the relevant key metabolic genes is detected. three metabolic parameters are obtained through the metabolic cage experiment: (1) Energy expenditure (EE), energy output is an important aspect of energy balance, under conditions such as restricted diet and fasting, mice will reduce basic metabolism, reduce energy expenditure; (2) respiratory exchange ratio (RER), based on the ratio calculated by CO2 produced and the use of 02, RER of 1 means that carbohydrates is mainly used as energy, RER of 0.7 means that fat is mainly used as fuel; (3) physical activity (Activity).

In the case of `C=Cc1cccc2c1N(C)Cc1cc3c(cc1-2)OCO3` [HLY72], the “three-day water consumption of treated mice, percent of control group” value ([1]; high-fat diet (HFD) mice) is reported as 26.38%±2.06%, the “three-day water consumption of treated mice, percent of control group” value ([1]; normal chow diet (NCD) mice) is reported as 39.68%±2.29% and the “body weight, difference to paired feeding group” value [2] is reported as “no significant difference”. The “physical activity compared with the DMSO group and the paired feeding group” value [2] was “significantly reduced”, the body weight ([2]; after three-day metabolic cage) was “decreased significantly” and the “energy expenditure compared with the DMSO group” value ([2]; day and night) was “decreased”. The “energy expenditure, difference to paired feeding group” value ([2]; day and night) was “no difference”, the “respiratory exchange rates compared with the paired feeding group and the DMSO group” value ([2]; night and day) was “significantly reduced” and the energy expenditure ([3]; 20 mg/kg once a day, night (dark) and day (light)) was “significantly reduces”. The respiratory exchange rate ([3]; at night) was “significantly reduced”, the physical activity ([3]; daytime) was “does not affect” and the respiratory exchange rate ([3]; during the day) was “no change”. The physical activity ([3]; night) was “decreased”.
